{"source": "the NIST ThermoML archive (doi:10.1016/j.tca.2018.02.007)", "key": {"[1]": {"settings": "for thermal conductivity: 101.33 kPa, T-histrory method; for Triple point temperature: DSC"}, "[2]": {"assay": "Molar enthalpy of transition or fusion", "settings": "DSC"}}, "note": "Numbers after ± are expanded uncertainties.", "data": [{"smiles": "OCC(CO)(CO)CO", "note": "[2,2-bis(hydroxymethyl)-1,3-propanediol]", "values": [{"measurement": "thermal conductivity", "setting": "[1]; 340.65 K, Crystal 2", "result": "0.112 ± 0.007", "unit": "W/m/K"}, {"measurement": "thermal conductivity", "setting": "[1]; 395.65 K, Crystal 2", "result": "0.108 ± 0.007", "unit": "W/m/K"}, {"measurement": "thermal conductivity", "setting": "[1]; 450.65 K, Crystal 2", "result": "0.104 ± 0.006", "unit": "W/m/K"}, {"measurement": "Triple point temperature", "setting": "[1]; Crystal 1", "result": "531.25 ± 0.8", "unit": "K"}, {"measurement": "Triple point temperature", "setting": "[1]; Crystal 2", "result": "454.55 ± 0.8", "unit": "K"}, {"measurement": "Molar enthalpy of transition or fusion", "setting": "[2]; Crystal 1", "result": "5.85 ± 0.27", "unit": "kJ/mol"}, {"measurement": "Molar enthalpy of transition or fusion", "setting": "[2]; Crystal 2", "result": "35.9 ± 1.6", "unit": "kJ/mol"}]}]}
